In ChEMBL document CHEMBL2177005, “Mineralocorticoid receptor antagonists for the treatment of hypertension and diabetic nephropathy” (J Med Chem, 2012):
Each block holds one molecule with its values, some of them ahead of it.

What was measured:
Progesterone receptor [1] = molecular target: T1, Progesterone receptor (Homo sapiens, UniProt P06401); experiment: Antagonist activity at progesterone receptor; type: functional
T1 sequence (P06401 whole entry): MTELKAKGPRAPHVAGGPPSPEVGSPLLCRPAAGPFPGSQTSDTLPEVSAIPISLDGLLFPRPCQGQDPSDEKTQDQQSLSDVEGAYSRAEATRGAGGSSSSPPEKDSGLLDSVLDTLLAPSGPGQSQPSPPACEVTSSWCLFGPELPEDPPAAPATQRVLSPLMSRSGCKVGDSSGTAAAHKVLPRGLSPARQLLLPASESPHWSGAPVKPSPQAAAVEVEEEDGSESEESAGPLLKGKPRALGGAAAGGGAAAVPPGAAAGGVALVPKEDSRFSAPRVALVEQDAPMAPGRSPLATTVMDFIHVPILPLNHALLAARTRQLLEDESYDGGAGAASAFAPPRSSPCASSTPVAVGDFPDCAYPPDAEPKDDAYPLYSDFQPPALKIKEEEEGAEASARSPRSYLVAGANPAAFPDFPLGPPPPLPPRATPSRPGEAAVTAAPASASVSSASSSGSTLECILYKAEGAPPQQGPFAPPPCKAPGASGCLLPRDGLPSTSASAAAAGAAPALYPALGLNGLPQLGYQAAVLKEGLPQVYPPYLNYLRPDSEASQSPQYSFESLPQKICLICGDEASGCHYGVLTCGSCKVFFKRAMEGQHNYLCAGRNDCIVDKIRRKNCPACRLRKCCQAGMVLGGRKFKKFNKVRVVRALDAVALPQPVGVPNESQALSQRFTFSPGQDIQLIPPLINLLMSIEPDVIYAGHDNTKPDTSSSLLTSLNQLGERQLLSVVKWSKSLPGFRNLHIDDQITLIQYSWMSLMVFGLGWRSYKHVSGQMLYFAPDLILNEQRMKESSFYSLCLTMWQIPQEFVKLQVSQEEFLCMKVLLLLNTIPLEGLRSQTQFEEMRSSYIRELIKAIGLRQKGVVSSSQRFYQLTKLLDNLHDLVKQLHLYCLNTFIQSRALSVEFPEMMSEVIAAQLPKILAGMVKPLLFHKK

[2] = molecular target: T2, Mineralocorticoid receptor (Homo sapiens, UniProt P08235); experiment: Displacement of [3H]aldosterone from human mineralocorticoid receptor overexpressed in HEK293 cells by microbeta counting assay; type: cell-based
T2 sequence (P08235 whole entry): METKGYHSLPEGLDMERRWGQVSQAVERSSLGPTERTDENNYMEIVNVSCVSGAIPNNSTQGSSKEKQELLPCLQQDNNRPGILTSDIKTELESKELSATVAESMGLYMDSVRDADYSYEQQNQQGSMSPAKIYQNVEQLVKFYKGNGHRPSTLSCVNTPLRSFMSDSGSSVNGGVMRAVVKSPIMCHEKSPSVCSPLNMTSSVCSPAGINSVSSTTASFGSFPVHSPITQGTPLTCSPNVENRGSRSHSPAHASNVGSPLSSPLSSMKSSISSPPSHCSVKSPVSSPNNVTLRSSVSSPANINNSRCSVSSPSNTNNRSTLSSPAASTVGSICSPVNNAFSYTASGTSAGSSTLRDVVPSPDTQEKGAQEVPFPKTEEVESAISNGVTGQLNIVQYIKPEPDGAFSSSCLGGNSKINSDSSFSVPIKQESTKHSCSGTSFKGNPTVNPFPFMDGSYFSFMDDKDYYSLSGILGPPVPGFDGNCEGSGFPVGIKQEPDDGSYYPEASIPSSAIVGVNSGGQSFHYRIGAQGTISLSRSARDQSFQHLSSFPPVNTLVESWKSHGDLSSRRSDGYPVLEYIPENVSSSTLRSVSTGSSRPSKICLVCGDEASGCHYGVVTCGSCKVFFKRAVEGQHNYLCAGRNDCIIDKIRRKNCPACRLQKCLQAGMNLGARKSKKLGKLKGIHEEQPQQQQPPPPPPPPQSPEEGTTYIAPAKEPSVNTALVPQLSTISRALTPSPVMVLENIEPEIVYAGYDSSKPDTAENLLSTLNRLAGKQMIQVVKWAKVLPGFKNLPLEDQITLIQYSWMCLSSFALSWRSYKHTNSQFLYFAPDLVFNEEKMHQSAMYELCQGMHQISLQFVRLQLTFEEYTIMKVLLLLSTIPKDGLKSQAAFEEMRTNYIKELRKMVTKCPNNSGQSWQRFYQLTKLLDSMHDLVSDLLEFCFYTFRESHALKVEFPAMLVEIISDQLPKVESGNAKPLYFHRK

Glucocorticoid receptor [3] = molecular target: T3, Glucocorticoid receptor (Homo sapiens, UniProt P04150); experiment: Displacement of [3H]dexamethasone from human glucocorticoid receptor overexpressed in HEK293 cells by microbeta counting assay; type: cell-based
T3 sequence (P04150 whole entry): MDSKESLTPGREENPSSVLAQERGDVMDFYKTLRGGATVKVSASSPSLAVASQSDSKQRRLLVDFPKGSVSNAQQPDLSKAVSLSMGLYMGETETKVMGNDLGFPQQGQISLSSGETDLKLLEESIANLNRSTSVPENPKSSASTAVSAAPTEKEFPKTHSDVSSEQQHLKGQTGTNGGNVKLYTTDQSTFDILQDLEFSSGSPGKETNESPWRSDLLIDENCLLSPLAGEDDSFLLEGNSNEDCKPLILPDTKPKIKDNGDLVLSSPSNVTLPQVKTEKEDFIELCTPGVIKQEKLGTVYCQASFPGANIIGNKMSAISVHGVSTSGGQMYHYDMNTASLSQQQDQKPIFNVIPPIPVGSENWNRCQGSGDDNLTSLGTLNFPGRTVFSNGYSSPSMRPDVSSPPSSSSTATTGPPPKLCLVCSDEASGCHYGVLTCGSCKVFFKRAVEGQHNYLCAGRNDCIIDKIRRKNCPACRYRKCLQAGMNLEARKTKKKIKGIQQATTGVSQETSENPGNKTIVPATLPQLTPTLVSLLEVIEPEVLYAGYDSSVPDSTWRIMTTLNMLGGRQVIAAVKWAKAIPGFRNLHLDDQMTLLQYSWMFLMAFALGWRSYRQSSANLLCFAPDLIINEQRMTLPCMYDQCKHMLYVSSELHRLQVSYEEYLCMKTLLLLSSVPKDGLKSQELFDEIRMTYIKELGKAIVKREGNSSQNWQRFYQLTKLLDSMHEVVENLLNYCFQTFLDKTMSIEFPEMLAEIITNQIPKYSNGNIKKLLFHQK

Androgen receptor [4] = molecular target: T4, Androgen receptor (Homo sapiens, UniProt P10275); experiment: Displacement of [3H]-methyltrienolone from human androgen receptor overexpressed in HEK293 cells by microbeta counting assay; type: cell-based
T4 sequence (P10275 whole entry): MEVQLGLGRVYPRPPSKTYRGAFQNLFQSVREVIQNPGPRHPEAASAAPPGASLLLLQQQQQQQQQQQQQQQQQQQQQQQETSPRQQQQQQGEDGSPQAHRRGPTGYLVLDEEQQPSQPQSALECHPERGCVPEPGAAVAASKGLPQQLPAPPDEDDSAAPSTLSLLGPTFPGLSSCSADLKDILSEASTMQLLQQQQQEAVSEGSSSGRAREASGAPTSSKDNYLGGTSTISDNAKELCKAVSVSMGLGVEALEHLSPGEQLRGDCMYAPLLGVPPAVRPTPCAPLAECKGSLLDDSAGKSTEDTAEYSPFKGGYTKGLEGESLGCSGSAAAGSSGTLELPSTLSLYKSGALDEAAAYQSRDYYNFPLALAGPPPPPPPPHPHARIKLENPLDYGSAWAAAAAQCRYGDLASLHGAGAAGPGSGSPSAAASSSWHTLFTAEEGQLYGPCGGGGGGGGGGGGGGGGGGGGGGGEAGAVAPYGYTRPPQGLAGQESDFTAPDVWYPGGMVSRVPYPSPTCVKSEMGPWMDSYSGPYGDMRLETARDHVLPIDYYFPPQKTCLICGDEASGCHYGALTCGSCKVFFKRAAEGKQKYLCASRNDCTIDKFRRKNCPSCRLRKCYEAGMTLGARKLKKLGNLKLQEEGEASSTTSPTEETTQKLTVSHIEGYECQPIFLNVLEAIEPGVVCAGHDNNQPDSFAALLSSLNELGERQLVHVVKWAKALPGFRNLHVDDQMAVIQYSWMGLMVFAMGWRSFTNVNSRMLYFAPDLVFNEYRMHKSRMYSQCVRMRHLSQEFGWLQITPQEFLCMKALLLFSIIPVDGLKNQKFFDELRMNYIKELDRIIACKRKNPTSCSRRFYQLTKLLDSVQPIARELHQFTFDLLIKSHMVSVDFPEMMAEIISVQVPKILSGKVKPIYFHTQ

Progesterone receptor [5] = molecular target: T1, Progesterone receptor; experiment: Displacement of [3H]methyltrienolone from human progesterone receptor overexpressed in HEK293 cells by microbeta counting assay; type: cell-based
Androgen receptor [6] = molecular target: T4, Androgen receptor; experiment: Antagonist activity against androgen receptor expressed in CHOK1 cells after 10 to 30 mins by luciferase reporter gene assay; type: functional, cell-based, CHO-K1
Glucocorticoid receptor [7] = molecular target: T3, Glucocorticoid receptor; experiment: Antagonist activity against glucocorticoid receptor expressed in CHOK1 cells after 10 to 30 mins by luciferase reporter gene assay; type: functional, cell-based, CHO-K1
[8] = molecular target: T2, Mineralocorticoid receptor; experiment: Antagonist activity against human mineralocorticoid receptor expressed in CHOK1 cells after 10 to 30 mins by luciferase reporter gene assay; type: functional, cell-based, CHO-K1
Progesterone receptor [9] = molecular target: T1, Progesterone receptor; experiment: Antagonist activity against progesterone receptor expressed in CHOK1 cells after 10 to 30 mins by luciferase reporter gene assay; type: functional, cell-based, CHO-K1
[10] = molecular target: T2, Mineralocorticoid receptor; experiment: Antagonist activity at mineralocorticoid receptor expressed in african green monkey COS7 cells after 18 hrs by luciferase reporter gene assay; type: functional, cell-based, COS-7
[11] = molecular target: T5, Mineralocorticoid receptor (Rattus norvegicus, UniProt P22199); experiment: Displacement of [3H]-aldosterone from rat mineralocorticoid receptor after 18 hrs by liquid scintillation counter analysis
T5 sequence (P22199 whole entry): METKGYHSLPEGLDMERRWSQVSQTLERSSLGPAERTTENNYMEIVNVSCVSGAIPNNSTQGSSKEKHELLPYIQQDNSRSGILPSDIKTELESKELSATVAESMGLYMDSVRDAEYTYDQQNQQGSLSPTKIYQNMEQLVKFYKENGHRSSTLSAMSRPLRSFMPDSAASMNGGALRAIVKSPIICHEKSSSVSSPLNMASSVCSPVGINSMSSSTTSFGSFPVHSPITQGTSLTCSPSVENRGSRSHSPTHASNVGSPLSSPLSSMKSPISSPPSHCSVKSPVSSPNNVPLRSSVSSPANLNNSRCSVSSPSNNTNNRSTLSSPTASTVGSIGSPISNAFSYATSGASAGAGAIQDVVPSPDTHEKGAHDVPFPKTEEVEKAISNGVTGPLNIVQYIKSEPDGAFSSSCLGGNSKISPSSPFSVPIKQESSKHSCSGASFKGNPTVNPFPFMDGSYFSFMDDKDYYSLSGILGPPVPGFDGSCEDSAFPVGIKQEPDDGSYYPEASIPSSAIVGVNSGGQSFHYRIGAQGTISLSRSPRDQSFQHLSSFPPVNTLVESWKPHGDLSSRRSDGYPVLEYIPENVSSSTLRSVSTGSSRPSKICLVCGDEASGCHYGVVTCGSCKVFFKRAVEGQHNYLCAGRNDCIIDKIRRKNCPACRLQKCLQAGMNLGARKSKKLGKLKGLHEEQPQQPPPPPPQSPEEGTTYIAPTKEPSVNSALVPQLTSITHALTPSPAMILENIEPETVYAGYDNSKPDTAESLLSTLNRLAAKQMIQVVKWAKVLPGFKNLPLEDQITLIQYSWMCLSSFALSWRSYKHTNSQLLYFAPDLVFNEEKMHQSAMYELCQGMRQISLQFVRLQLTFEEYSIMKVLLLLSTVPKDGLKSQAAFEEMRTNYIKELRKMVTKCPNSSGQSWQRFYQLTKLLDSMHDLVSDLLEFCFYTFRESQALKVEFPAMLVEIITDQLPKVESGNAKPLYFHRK

[12] = molecular target: T5, Mineralocorticoid receptor; experiment: Displacement of [3H]Aldosterone C from rat mineralocorticoid receptor by liquid scintillation counter analysis
[13] = molecular target: T2, Mineralocorticoid receptor; experiment: Antagonist activity at mineralocorticoid receptor; type: functional
[14] = Protein binding in plasma; type: ADME, cell-free; conditions: read-out: PPB (converted)
[15] = Binding affinity to Ca2+ channel L type by radioligand binding assay
[16] = molecular target: T5, Mineralocorticoid receptor; experiment: Binding affinity to rat mineralocorticoid receptor

Compound: O=C1COc2ccc(C3=Nn4cnnc4SC3c3ccccc3)cc2N1 (configuration not stated)
IC50 (Progesterone receptor [1]): > 10000 nM

Compound: CCOC(=O)C1=C(C)NC(C)=C(C(C)=O)[C@H]1c1cccc2c(=O)cc(C)oc12
IC50 (Androgen receptor [6]): 4440 nM | IC50 (Glucocorticoid receptor [7]): 5470 nM | IC50 [8]: 28 nM | IC50 (Progesterone receptor [9]): 9020 nM

Compound: COc1cc(C(=O)Nc2ccc(-c3ccccc3OC(F)(F)F)c(CCN(C)C3CC3)c2)ccc1S(N)(=O)=O
IC50 [12]: 22 nM

Compound: COC(=O)[C@@H]1CC2=CC(=O)CC[C@]2(C)[C@@]23O[C@@H]2C[C@@]2(C)[C@@H](CC[C@@]24CCC(=O)O4)[C@H]13 [EPLERENONE]
fraction unbound [14]: 0.1

Compound: CCOc1ncc(C)c2c1[C@H](c1ccc(C#N)cc1OC)C(C(N)=O)=C(C)N2 [FINERENONE]
IC50 [15]: > 1000 nM

Compound: CC1(C)Oc2cc(NS(C)(=O)=O)ccc2N(c2ccc(F)cc2)C1=O [MT-3995]
IC50 [16]: < 500 nM

Second part, the molecule after the results:

Ki [2]: 0.4 nM | Ki (Glucocorticoid receptor [3]): 669 nM | Ki (Androgen receptor [4]): 1170 nM | Ki (Progesterone receptor [5]): 478 nM
Compound: O=c1[nH]c2cc(/C=C3\c4ccccc4COc4cc(F)ccc43)ccc2n1[C@H]1C[C@H]2COCCN2C1

IC50 [10]: 130 nM | IC50 [11]: 21 nM
Compound: CC1(C)OC(=S)Nc2ccc(NS(=O)(=O)c3cccs3)cc21

IC50 [13]: 2.4 nM
Compound: Cc1c(C(=O)Nc2ccc(S(C)(=O)=O)cc2)cn(CCO)c1-c1ccccc1C(F)(F)F

fraction unbound [14]: 0.51
Compound: CC(=O)S[C@@H]1CC2=CC(=O)CC[C@]2(C)[C@H]2CC[C@@]3(C)[C@@H](CC[C@@]34CCC(=O)O4)[C@H]12 [SPIRONOLACTONE]
